{"source": "patent US12552846B2", "about": "“Modified BCL9 mimetic peptides” (Sapience Therapeutics, Inc., priority 2019, dated 2026)", "note": "Square brackets hold non-standard residues; d marks the D form. Peptide text beside a SMILES is read from it. d1Nal = N[C@H](Cc1cccc2ccccc12)C(=O)O; d2Nal = N[C@H](Cc1ccc2ccccc2c1)C(=O)O"}
{"tested_on": "HL60 promyelocytic leukemia cells", "experiment": "Cytotoxicity assay in HL60 cells (Annexin V FITC / PI flow cytometry)", "format": "cell-based", "details": "48 hours", "protocol": "(§1) We examined the cytotoxicity of peptides BCL-26 and BCL-27 using an assay in HL60 promyelocytic leukemia cells. HL60 PML suspension cells were set at a density of 3.5×10^3 cells/well in 150 μL of RPMI+1.5% fetal bovine serum (FBS) in a 96 well dish. BCL-26 or BCL-27, reconstituted at a concentration of 10 mg/mL in 20 mM His, pH 7.5, was added to each well at a volume of 50 μL to a final concentration range of 0-80 μM. Cells were incubated with peptide for 48 hours at 37° C. Cell viability was quantified by flow cytometry using abcam Annexin V FITC apoptosis detection kit. Briefly, cells were washed with PBS and resuspended in 1× assay buffer containing Annexin V FITC and propidium iodide (PI). Annexin V detects apoptotic cells, and PI stains dead cells. After staining, apoptotic cells show green fluorescence, dead cells show red and green fluorescence, and live cells show little or no fluorescence. Cells were selected for analysis based on forward scatter (FSC) vs. side scatter (SSC), and analyzed by BD Accuri C6 Plus flow cytometer to detect Annexin V-FITC binding (Ex=488 nm; Em=530 nm) using FITC signal detector and PI staining by the phycoerythrnn emission signal detector. Percentage of Annexin V^low and PI^low were quantified and presented as % Viability.\n(§2) We examined the cytotoxicity of additional retro inverso and mixed chirality BCL9 mimetic peptides in HL60 cells using the assay described above."}
{"smiles": "CC(C)C[C@@H](NC(=O)[C@@H](CCC(N)=O)NC(=O)[C@@H](C)NC(=O)[C@@H](CC(C)C)NC(=O)[C@@H](CCCNC(=N)N)NC(=O)[C@@H](C)NC(=O)[C@@H](CC(C)C)NC(=O)[C@@H](CCC(N)=O)NC(=O)[C@@H](CCCNC(=N)N)NC(=O)[C@@H](C)NC(=O)[C@@H](CC(C)C)NC(=O)[C@@H](Cc1c[nH]c2ccccc12)NC(=O)[C@H](N)Cc1c[nH]c2ccccc12)C(=O)N[C@H](C)C(=O)O", "note": "[BCL-12] (H-[dW][dW][dL][dA][dR][dQ][dL][dA][dR][dL][dA][dQ][dL][dA]-OH; N-terminus and C-terminus assumed)", "cytotoxic activity": "no cytotoxic activity"}
{"tested_on": "HL60 promyelocytic leukemia cells", "experiment": "Cytotoxicity assay in HL60 cells (Annexin V FITC / PI flow cytometry)", "format": "cell-based", "details": "48 hours, 0-80 μM, % Viability (Annexin V low, PI low)", "protocol": "as §1, §2", "units": {"EC50": "µM"}}
{"smiles": "CC(C)C[C@@H](NC(=O)[C@@H](CCC(N)=O)NC(=O)[C@@H](C)NC(=O)[C@@H](CC(C)C)NC(=O)[C@@H](CCCNC(=N)N)NC(=O)[C@@H](C)NC(=O)[C@@H](CC(C)C)NC(=O)[C@@H](CCC(N)=O)NC(=O)[C@@H](CCCNC(=N)N)NC(=O)[C@@H](C)NC(=O)[C@@H](CC(C)C)NC(=O)[C@@H](Cc1c[nH]c2ccccc12)NC(=O)[C@H](N)Cc1c[nH]c2ccccc12)C(=O)N[C@H](C)C(=O)O", "note": "[BCL-12] (H-[dW][dW][dL][dA][dR][dQ][dL][dA][dR][dL][dA][dQ][dL][dA]-OH; N-terminus and C-terminus assumed)", "EC50": "> 80"}
{"smiles": "CC(C)C[C@@H](NC(=O)[C@@H](Cc1c[nH]c2ccccc12)NC(=O)[C@H](N)Cc1c[nH]c2ccccc12)C(=O)N[C@H](C)C(=O)N[C@H](CCCNC(=N)N)C(=O)N[C@H](CCC(N)=O)C(=O)N[C@H](CC(C)C)C(=O)N[C@H](CCC(=O)O)C(=O)N[C@H](CCCNC(=N)N)C(=O)N[C@H](CC(C)C)C(=O)N[C@H](C)C(=O)N[C@H](CCC(N)=O)C(=O)N[C@H](CC(C)C)C(=O)N[C@H](C)C(=O)N[C@H](CCCCN)C(=O)N[C@H](CC(C)C)C(=O)N[C@@H](C(=O)N1CCC[C@@H]1C(=O)N[C@@H](C(=O)O)C(C)C)[C@H](C)O", "note": "[BCL-76] (H-[dW][dW][dL][dA][dR][dQ][dL][dE][dR][dL][dA][dQ][dL][dA][dK][dL][dT][dP][dV]-OH; N-terminus and C-terminus assumed)", "EC50": "> 10"}
{"smiles": "CC(C)C[C@@H](NC(=O)[C@@H](Cc1c[nH]c2ccccc12)NC(=O)[C@H](N)Cc1cccc2ccccc12)C(=O)N[C@H](C)C(=O)N[C@H](CCCNC(=N)N)C(=O)N[C@H](CCC(N)=O)C(=O)N[C@H](CC(C)C)C(=O)N[C@H](C)C(=O)N[C@H](CCCNC(=N)N)C(=O)N[C@H](CC(C)C)C(=O)N[C@H](C)C(=O)N[C@H](CCC(N)=O)C(=O)N[C@H](CC(C)C)C(=O)N[C@H](C)C(=O)N[C@H](CCCCN)C(=O)N[C@H](CC(C)C)C(=O)N[C@@H](C(=O)N1CCC[C@@H]1C(=O)N[C@@H](C(=O)O)C(C)C)[C@H](C)O", "note": "[BCL-77] (H-[d1Nal][dW][dL][dA][dR][dQ][dL][dA][dR][dL][dA][dQ][dL][dA][dK][dL][dT][dP][dV]-OH; N-terminus and C-terminus assumed)", "EC50": "< 2"}
{"smiles": "CC(C)C[C@@H](NC(=O)[C@@H](Cc1c[nH]c2ccccc12)NC(=O)[C@H](N)Cc1ccc2ccccc2c1)C(=O)N[C@H](C)C(=O)N[C@H](CCCNC(=N)N)C(=O)N[C@H](CCC(N)=O)C(=O)N[C@H](CC(C)C)C(=O)N[C@H](C)C(=O)N[C@H](CCCNC(=N)N)C(=O)N[C@H](CC(C)C)C(=O)N[C@H](C)C(=O)N[C@H](CCC(N)=O)C(=O)N[C@H](CC(C)C)C(=O)N[C@H](C)C(=O)N[C@H](CCCCN)C(=O)N[C@H](CC(C)C)C(=O)N[C@@H](C(=O)N1CCC[C@@H]1C(=O)N[C@@H](C(=O)O)C(C)C)[C@H](C)O", "note": "[BCL-78] (H-[d2Nal][dW][dL][dA][dR][dQ][dL][dA][dR][dL][dA][dQ][dL][dA][dK][dL][dT][dP][dV]-OH; N-terminus and C-terminus assumed)", "EC50": "< 2"}
{"smiles": "CC(C)C[C@@H](NC(=O)[C@@H](Cc1c[nH]c2ccccc12)NC(=O)[C@H](N)Cc1ccccc1)C(=O)N[C@H](C)C(=O)N[C@H](CCCNC(=N)N)C(=O)N[C@H](CCC(N)=O)C(=O)N[C@H](CC(C)C)C(=O)N[C@H](C)C(=O)N[C@H](CCCNC(=N)N)C(=O)N[C@H](CC(C)C)C(=O)N[C@H](C)C(=O)N[C@H](CCC(N)=O)C(=O)N[C@H](CC(C)C)C(=O)N[C@H](C)C(=O)N[C@H](CCCCN)C(=O)N[C@H](CC(C)C)C(=O)N[C@@H](C(=O)N1CCC[C@@H]1C(=O)N[C@@H](C(=O)O)C(C)C)[C@H](C)O", "note": "[BCL-79] (H-[dF][dW][dL][dA][dR][dQ][dL][dA][dR][dL][dA][dQ][dL][dA][dK][dL][dT][dP][dV]-OH; N-terminus and C-terminus assumed)", "EC50": "< 2"}
{"smiles": "CC(C)C[C@@H](NC(=O)[C@@H](Cc1c[nH]c2ccccc12)NC(=O)[C@H](N)Cc1c[nH]c2ccccc12)C(=O)N[C@H](C)C(=O)N[C@H](CCCNC(=N)N)C(=O)N[C@H](CCC(N)=O)C(=O)N[C@H](CC(C)C)C(=O)N[C@H](C)C(=O)N[C@H](CCCNC(=N)N)C(=O)N[C@H](CC(C)C)C(=O)N[C@H](CCCNC(=N)N)C(=O)N[C@H](CCC(N)=O)C(=O)N[C@H](CC(C)C)C(=O)N[C@H](C)C(=O)N[C@H](CCCCN)C(=O)N[C@H](CC(C)C)C(=O)N[C@@H](C(=O)N1CCC[C@@H]1C(=O)N[C@@H](C(=O)O)C(C)C)[C@H](C)O", "note": "[BCL-80] (H-[dW][dW][dL][dA][dR][dQ][dL][dA][dR][dL][dR][dQ][dL][dA][dK][dL][dT][dP][dV]-OH; N-terminus and C-terminus assumed)", "EC50": "< 2"}
{"smiles": "CC(C)C[C@@H](NC(=O)[C@@H](Cc1ccccc1)NC(=O)[C@H](N)Cc1c[nH]c2ccccc12)C(=O)N[C@H](C)C(=O)N[C@H](CCCNC(=N)N)C(=O)N[C@H](CCC(N)=O)C(=O)N[C@H](CC(C)C)C(=O)N[C@H](C)C(=O)N[C@H](CCCNC(=N)N)C(=O)N[C@H](CC(C)C)C(=O)N[C@H](C)C(=O)N[C@H](CCC(N)=O)C(=O)N[C@H](CC(C)C)C(=O)N[C@H](C)C(=O)N[C@H](CCCCN)C(=O)N[C@H](CC(C)C)C(=O)N[C@@H](C(=O)N1CCC[C@@H]1C(=O)N[C@@H](C(=O)O)C(C)C)[C@H](C)O", "note": "[BCL-81] (H-[dW][dF][dL][dA][dR][dQ][dL][dA][dR][dL][dA][dQ][dL][dA][dK][dL][dT][dP][dV]-OH; N-terminus and C-terminus assumed)", "EC50": "2 to 10"}
{"smiles": "CC(C)C[C@@H](NC(=O)[C@H](N)Cc1c[nH]c2ccccc12)C(=O)N[C@H](CC(C)C)C(=O)N[C@H](C)C(=O)N[C@H](CCCNC(=N)N)C(=O)N[C@H](CCC(N)=O)C(=O)N[C@H](CC(C)C)C(=O)N[C@H](C)C(=O)N[C@H](CCCNC(=N)N)C(=O)N[C@H](CC(C)C)C(=O)N[C@H](C)C(=O)N[C@H](CCC(N)=O)C(=O)N[C@H](CC(C)C)C(=O)N[C@H](C)C(=O)N[C@H](CCCCN)C(=O)N[C@H](CC(C)C)C(=O)N[C@@H](C(=O)N1CCC[C@@H]1C(=O)N[C@@H](C(=O)O)C(C)C)[C@H](C)O", "note": "[BCL-82] (H-[dW][dL][dL][dA][dR][dQ][dL][dA][dR][dL][dA][dQ][dL][dA][dK][dL][dT][dP][dV]-OH; N-terminus and C-terminus assumed)", "EC50": "2 to 10"}
{"smiles": "CC(C)C[C@@H](NC(=O)[C@@H](CCCNC(=N)N)NC(=O)[C@@H](C)NC(=O)[C@@H](CC(C)C)NC(=O)[C@@H](CCC(N)=O)NC(=O)[C@@H](CCCNC(=N)N)NC(=O)[C@@H](CCC(=O)O)NC(=O)[C@@H](CC(C)C)NC(=O)[C@@H](Cc1c[nH]c2ccccc12)NC(=O)[C@H](N)Cc1c[nH]c2ccccc12)C(=O)N[C@H](C)C(=O)N[C@H](CCC(N)=O)C(=O)N[C@H](CC(C)C)C(=O)N[C@H](C)C(=O)N[C@H](CCCCN)C(=O)N[C@H](CC(C)C)C(=O)N[C@@H](C(=O)N1CCC[C@@H]1C(=O)N[C@@H](C(=O)O)C(C)C)[C@H](C)O", "note": "[BCL-83] (H-[dW][dW][dL][dE][dR][dQ][dL][dA][dR][dL][dA][dQ][dL][dA][dK][dL][dT][dP][dV]-OH; N-terminus and C-terminus assumed)", "EC50": "2 to 10"}
{"smiles": "CC(C)C[C@@H](NC(=O)[C@@H](Cc1c[nH]c2ccccc12)NC(=O)[C@H](N)Cc1c[nH]c2ccccc12)C(=O)N[C@H](C)C(=O)N[C@H](CCCNC(=N)N)C(=O)N[C@H](CCC(N)=O)C(=O)N[C@H](CC(C)C)C(=O)N[C@H](C)C(=O)N[C@H](CCCNC(=N)N)C(=O)N[C@H](CC(C)C)C(=O)N[C@H](C)C(=O)N[C@H](CCC(N)=O)C(=O)N[C@H](CC(C)C)C(=O)N[C@H](C)C(=O)N[C@H](CCCNC(=N)N)C(=O)N[C@H](CCC(=O)O)C(=O)N[C@H](CCCNC(=N)N)C(=O)N[C@H](Cc1c[nH]cn1)C(=O)N[C@H](CCC(=O)O)C(=O)N[C@H](CC(C)C)C(=O)N[C@H](CCC(N)=O)C(=O)N[C@H](CCC(=O)O)C(=O)N[C@H](CCC(N)=O)C(=O)N[C@H](CO)C(=O)N[C@H](CC(C)C)C(=O)N[C@H](CCCCN)C(=O)N[C@H](CC(C)C)C(=O)N[C@@H](C(=O)N1CCC[C@@H]1C(=O)N[C@@H](C(=O)O)C(C)C)[C@H](C)O", "note": "[BCL-84] (H-[dW][dW][dL][dA][dR][dQ][dL][dA][dR][dL][dA][dQ][dL][dA][dR][dE][dR][dH][dE][dL][dQ][dE][dQ][dS][dL][dK][dL][dT][dP][dV]-OH; N-terminus and C-terminus assumed)", "EC50": "< 2"}
{"smiles": "CC(C)C[C@@H](NC(=O)[C@@H](Cc1c[nH]c2ccccc12)NC(=O)[C@H](N)Cc1c[nH]c2ccccc12)C(=O)N[C@H](C)C(=O)N[C@H](CCCNC(=N)N)C(=O)N[C@H](CCC(N)=O)C(=O)N[C@H](CC(C)C)C(=O)N[C@H](C)C(=O)N[C@H](CCCNC(=N)N)C(=O)N[C@H](CC(C)C)C(=O)N[C@H](CCC(N)=O)C(=O)N[C@H](CCC(N)=O)C(=O)N[C@H](CC(C)C)C(=O)N[C@H](C)C(=O)N[C@H](CCCCN)C(=O)N[C@H](CC(C)C)C(=O)N[C@@H](C(=O)N1CCC[C@@H]1C(=O)N[C@@H](C(=O)O)C(C)C)[C@H](C)O", "note": "[BCL-85] (H-[dW][dW][dL][dA][dR][dQ][dL][dA][dR][dL][dQ][dQ][dL][dA][dK][dL][dT][dP][dV]-OH; N-terminus and C-terminus assumed)", "EC50": "< 2"}
